Measured values taken from paper PMC8333425, “Discovery of a dual Ras and ARF6 inhibitor from a GPCR endocytosis screen” (Nature Communications, 2021).

Key:
Experiment in all cases: KINOMEscan kinase binding assay
[1] = molecular target: T1, 384 kinases from the human genome (Homo sapiens, UniProt Q8IU85); conditions: kinase CAMK1D (Entrez CAMK1D)
T1 construct: purchased Eurofin/DiscoverX
Method in brief: (§1)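 Competition binding (KINOMEscan) across 384 human kinases with compound at 10 µM. Ligand binding was expressed relative to DMSO (100%) as the average of duplicates from one experiment. S(10) selectivity score was derived.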

[2] = molecular target: T2, 384 kinases from the human genome (Homo sapiens, UniProt P45983); conditions: kinase JNK1 (Entrez MAPK8)
T2 construct: purchased Eurofin/DiscoverX
Method in brief: as §1

[3] = molecular target: T3, 384 kinases from the human genome (Homo sapiens, UniProt P46734); conditions: kinase MEK3 (Entrez MAP2K3)
T3 construct: purchased Eurofin/DiscoverX
Method in brief: as §1

[4] = molecular target: T4, 384 kinases from the human genome (Homo sapiens, UniProt Q16288); conditions: kinase TRKC (Entrez NTRK3)
T4 construct: purchased Eurofin/DiscoverX
Method in brief: as §1

[5] = molecular target: T5, 384 kinases from the human genome (Homo sapiens, UniProt Q6XUX3); conditions: kinase RIPK5 (Entrez DSTYK)
T5 construct: purchased Eurofin/DiscoverX
Method in brief: as §1

[6] = molecular target: T6, 384 kinases from the human genome (Homo sapiens, UniProt Q16512); conditions: kinase PKN1 (Entrez PKN1)
T6 construct: purchased Eurofin/DiscoverX
Method in brief: as §1

[7] = molecular target: T7, 384 kinases from the human genome (Homo sapiens, UniProt P42684); conditions: kinase ABL2 (Entrez ABL2)
T7 construct: purchased Eurofin/DiscoverX
Method in brief: as §1

[8] = molecular target: T8, 384 kinases from the human genome (Homo sapiens, UniProt P21860); conditions: kinase ERBB3 (Entrez ERBB3)
T8 construct: purchased Eurofin/DiscoverX
Method in brief: as §1

[9] = molecular target: T9, 384 kinases from the human genome (Homo sapiens, UniProt P48729); conditions: kinase CSNK1A1 (Entrez CSNK1A1)
T9 construct: purchased Eurofin/DiscoverX
Method in brief: as §1

[10] = molecular target: T10, 384 kinases from the human genome (Homo sapiens, UniProt P0C264); conditions: kinase SgK110 (Entrez SgK110)
T10 construct: purchased Eurofin/DiscoverX
Method in brief: as §1

[11] = molecular target: T11, 384 kinases from the human genome (Homo sapiens, UniProt O95382); conditions: kinase ASK2 (Entrez MAP3K6)
T11 construct: purchased Eurofin/DiscoverX
Method in brief: as §1

[12] = molecular target: T12, 384 kinases from the human genome (Homo sapiens, UniProt P42336); conditions: kinase PIK3CA (Entrez PIK3CA)
T12 construct: purchased Eurofin/DiscoverX
Method in brief: as §1

[13] = molecular target: T13, 384 kinases from the human genome (Homo sapiens, UniProt Q13177); conditions: kinase PAK2 (Entrez PAK2)
T13 construct: purchased Eurofin/DiscoverX
Method in brief: as §1

[14] = molecular target: T14, 384 kinases from the human genome (Homo sapiens, UniProt P49760); conditions: kinase CLK2 (Entrez CLK2)
T14 construct: purchased Eurofin/DiscoverX
Method in brief: as §1

[15] = molecular target: T15, 384 kinases from the human genome (Homo sapiens, UniProt Q9BXA7); conditions: kinase TSSK1B (Entrez TSSK1B)
T15 construct: purchased Eurofin/DiscoverX
Method in brief: as §1

[16] = molecular target: T16, 384 kinases from the human genome (Homo sapiens, UniProt P50613); conditions: kinase CDK7 (Entrez CDK7)
T16 construct: purchased Eurofin/DiscoverX
Method in brief: as §1

[17] = molecular target: T17, 384 kinases from the human genome (Homo sapiens, UniProt Q8NI60); conditions: kinase ADCK3 (Entrez CABC1)
T17 construct: purchased Eurofin/DiscoverX
Method in brief: as §1

[18] = molecular target: T18, 384 kinases from the human genome (Homo sapiens, UniProt Q15375); conditions: kinase EPHA7 (Entrez EPHA7)
T18 construct: purchased Eurofin/DiscoverX
Method in brief: as §1

[19] = molecular target: T19, 384 kinases from the human genome (Homo sapiens, UniProt O43318); conditions: kinase TAK1 (Entrez MAP3K7)
T19 construct: purchased Eurofin/DiscoverX
Method in brief: as §1

[20] = molecular target: T20, 384 kinases from the human genome (Homo sapiens, UniProt Q00537); conditions: kinase PCTK2 (Entrez CDK17)
T20 construct: purchased Eurofin/DiscoverX
Method in brief: as §1

[21] = molecular target: T21, 384 kinases from the human genome (Homo sapiens, UniProt Q9NYY3); conditions: kinase PLK2 (Entrez PLK2)
T21 construct: purchased Eurofin/DiscoverX
Method in brief: as §1

[22] = molecular target: T22, 384 kinases from the human genome (Homo sapiens, UniProt O94804); conditions: kinase LOK (Entrez STK10)
T22 construct: purchased Eurofin/DiscoverX
Method in brief: as §1

[23] = molecular target: T23, 384 kinases from the human genome (Homo sapiens, UniProt Q9H4A3); conditions: kinase WNK1 (Entrez WNK1)
T23 construct: purchased Eurofin/DiscoverX
Method in brief: as §1

[24] = molecular target: T24, 384 kinases from the human genome (Homo sapiens, UniProt Q9Y6R4); conditions: kinase MAP3K4 (Entrez MAP3K4)
T24 construct: purchased Eurofin/DiscoverX
Method in brief: as §1

[25] = molecular target: T25, 384 kinases from the human genome (Homo sapiens, UniProt Q9UQM7); conditions: kinase CAMK2A (Entrez CAMK2A)
T25 construct: purchased Eurofin/DiscoverX
Method in brief: as §1

[26] = molecular target: T26, 384 kinases from the human genome (Homo sapiens, UniProt Q9Y2I7); conditions: kinase PIKFYVE (Entrez PIKFYVE)
T26 construct: purchased Eurofin/DiscoverX
Method in brief: as §1

T11 sequence (O95382 whole entry): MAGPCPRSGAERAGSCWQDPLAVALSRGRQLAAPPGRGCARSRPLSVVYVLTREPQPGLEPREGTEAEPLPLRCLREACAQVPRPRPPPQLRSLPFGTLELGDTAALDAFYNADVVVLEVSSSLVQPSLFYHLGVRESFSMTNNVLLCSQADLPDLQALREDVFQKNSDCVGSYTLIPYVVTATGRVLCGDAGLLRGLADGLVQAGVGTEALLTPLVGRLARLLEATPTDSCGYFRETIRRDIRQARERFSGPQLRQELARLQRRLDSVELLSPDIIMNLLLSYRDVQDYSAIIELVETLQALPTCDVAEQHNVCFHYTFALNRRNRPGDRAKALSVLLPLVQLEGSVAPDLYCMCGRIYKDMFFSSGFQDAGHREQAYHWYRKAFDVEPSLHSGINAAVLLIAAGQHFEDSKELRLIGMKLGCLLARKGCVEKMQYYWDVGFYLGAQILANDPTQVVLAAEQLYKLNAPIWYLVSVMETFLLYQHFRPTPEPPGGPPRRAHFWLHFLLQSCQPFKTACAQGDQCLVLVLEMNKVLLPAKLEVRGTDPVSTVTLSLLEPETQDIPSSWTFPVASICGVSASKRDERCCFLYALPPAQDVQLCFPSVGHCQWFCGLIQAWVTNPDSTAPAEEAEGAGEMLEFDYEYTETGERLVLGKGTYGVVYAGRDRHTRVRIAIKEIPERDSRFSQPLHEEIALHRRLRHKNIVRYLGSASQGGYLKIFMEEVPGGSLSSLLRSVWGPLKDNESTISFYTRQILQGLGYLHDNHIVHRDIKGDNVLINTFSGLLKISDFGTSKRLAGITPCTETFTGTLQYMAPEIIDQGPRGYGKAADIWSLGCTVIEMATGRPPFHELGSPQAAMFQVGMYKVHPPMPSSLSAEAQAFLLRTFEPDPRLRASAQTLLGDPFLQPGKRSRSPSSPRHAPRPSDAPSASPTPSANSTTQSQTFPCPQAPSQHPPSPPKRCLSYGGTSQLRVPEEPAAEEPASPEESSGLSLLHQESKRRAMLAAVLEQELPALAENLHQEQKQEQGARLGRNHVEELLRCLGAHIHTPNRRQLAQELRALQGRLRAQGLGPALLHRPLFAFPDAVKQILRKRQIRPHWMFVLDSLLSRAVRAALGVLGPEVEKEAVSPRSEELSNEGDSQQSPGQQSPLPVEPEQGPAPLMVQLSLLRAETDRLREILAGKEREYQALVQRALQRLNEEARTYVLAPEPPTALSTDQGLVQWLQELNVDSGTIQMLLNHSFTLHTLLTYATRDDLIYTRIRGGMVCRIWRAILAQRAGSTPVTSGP
T9 sequence (P48729 whole entry): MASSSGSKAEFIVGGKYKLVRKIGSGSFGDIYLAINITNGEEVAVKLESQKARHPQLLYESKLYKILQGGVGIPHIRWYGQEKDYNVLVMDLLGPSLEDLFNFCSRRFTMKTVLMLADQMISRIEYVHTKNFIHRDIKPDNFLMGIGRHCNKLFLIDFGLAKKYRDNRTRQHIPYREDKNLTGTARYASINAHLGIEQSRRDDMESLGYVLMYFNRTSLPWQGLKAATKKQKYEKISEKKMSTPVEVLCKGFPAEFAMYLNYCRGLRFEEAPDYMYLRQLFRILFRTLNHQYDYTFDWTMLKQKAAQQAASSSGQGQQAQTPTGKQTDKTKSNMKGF
T5 sequence (Q6XUX3 whole entry): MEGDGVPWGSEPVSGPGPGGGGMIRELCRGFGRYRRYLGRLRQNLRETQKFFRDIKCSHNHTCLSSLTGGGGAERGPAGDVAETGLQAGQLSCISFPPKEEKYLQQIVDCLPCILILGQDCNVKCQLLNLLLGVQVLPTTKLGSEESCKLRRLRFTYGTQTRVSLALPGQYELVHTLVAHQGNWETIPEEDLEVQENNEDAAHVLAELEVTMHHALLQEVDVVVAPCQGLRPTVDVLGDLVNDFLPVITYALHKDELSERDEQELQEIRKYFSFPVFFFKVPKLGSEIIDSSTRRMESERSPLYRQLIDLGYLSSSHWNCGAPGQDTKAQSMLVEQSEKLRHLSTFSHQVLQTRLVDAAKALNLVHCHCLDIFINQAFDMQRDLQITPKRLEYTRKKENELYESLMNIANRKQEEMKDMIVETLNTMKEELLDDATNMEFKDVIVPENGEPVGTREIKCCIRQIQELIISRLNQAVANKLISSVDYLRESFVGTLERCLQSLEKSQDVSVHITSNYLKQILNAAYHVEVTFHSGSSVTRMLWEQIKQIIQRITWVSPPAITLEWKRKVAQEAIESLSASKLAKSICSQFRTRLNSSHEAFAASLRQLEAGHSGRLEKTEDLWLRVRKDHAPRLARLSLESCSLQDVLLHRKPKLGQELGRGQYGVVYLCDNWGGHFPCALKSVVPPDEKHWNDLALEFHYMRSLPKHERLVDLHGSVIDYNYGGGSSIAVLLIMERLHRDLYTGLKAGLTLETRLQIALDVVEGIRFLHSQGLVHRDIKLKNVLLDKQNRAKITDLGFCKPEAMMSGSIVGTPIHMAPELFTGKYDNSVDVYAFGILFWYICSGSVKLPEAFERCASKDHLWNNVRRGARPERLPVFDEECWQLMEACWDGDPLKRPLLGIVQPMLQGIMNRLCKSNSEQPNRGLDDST
T16 sequence (P50613 whole entry): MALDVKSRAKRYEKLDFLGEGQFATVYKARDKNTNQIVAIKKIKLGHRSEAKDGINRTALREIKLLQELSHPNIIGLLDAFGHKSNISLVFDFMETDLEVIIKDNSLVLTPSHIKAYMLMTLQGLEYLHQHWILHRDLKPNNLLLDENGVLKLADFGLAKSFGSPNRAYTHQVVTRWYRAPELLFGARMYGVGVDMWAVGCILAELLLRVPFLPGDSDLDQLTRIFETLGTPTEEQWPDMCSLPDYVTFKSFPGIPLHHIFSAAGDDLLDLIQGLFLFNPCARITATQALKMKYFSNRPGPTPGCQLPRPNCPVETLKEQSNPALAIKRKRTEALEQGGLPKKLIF
T21 sequence (Q9NYY3 whole entry): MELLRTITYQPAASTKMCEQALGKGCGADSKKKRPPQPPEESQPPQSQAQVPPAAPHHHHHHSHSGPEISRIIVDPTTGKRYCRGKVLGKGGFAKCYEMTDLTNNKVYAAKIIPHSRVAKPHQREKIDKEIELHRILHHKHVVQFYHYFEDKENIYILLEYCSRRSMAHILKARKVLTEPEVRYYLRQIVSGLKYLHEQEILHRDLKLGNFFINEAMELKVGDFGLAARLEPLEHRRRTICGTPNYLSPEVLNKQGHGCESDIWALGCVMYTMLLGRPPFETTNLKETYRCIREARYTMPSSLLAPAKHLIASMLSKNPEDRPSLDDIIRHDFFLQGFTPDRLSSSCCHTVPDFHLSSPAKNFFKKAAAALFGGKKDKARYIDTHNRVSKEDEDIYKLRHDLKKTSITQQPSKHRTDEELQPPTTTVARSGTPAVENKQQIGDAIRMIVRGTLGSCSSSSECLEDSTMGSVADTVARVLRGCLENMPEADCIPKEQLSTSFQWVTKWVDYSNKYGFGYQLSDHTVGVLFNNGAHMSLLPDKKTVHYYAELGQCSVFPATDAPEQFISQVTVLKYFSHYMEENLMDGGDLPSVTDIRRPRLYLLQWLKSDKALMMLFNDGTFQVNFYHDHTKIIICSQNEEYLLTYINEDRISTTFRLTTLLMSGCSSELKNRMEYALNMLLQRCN
T2 sequence (P45983 whole entry): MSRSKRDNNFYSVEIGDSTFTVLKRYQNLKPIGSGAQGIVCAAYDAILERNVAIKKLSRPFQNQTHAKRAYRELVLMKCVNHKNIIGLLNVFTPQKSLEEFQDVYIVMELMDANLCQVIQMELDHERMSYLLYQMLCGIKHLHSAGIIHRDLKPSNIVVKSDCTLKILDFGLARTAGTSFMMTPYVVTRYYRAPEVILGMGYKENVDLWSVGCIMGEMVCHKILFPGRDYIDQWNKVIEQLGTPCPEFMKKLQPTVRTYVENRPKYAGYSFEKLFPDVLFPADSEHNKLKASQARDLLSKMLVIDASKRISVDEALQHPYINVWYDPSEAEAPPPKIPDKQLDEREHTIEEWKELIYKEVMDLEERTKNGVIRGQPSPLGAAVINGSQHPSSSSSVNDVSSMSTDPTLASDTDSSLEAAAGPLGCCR
T1 sequence (Q8IU85 whole entry): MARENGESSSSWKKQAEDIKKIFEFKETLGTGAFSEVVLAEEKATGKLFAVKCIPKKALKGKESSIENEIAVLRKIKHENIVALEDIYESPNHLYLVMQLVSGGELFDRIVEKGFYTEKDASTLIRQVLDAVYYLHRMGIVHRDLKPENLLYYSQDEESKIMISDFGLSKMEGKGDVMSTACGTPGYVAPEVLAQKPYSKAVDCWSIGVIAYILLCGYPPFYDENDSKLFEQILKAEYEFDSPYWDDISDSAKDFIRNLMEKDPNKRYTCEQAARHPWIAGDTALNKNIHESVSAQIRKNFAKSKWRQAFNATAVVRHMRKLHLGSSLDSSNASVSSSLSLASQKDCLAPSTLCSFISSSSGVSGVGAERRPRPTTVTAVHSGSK
T17 sequence (Q8NI60 163-647): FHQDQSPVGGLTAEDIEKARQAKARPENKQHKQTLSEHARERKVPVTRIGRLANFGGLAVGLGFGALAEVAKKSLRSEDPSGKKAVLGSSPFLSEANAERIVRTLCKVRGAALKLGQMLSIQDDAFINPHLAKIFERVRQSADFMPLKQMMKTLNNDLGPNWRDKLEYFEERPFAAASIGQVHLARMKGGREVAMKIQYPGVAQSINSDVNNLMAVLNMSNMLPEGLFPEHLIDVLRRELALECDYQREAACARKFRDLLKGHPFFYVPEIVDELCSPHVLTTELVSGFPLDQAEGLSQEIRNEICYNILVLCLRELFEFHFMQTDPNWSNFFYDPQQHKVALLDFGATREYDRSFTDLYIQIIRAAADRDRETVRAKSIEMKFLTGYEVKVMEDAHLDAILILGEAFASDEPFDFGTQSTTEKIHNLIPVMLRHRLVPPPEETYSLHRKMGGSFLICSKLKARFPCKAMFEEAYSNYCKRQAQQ

SMILES: CC(C)C(=O)N1CCN(c2ccc(NC(=O)c3cc4ccccc4o3)cc2Cl)CC1 [Compound 21]
- Percent Control [1]: 94%
- Percent Control [2]: 63%
- Percent Control [3]: 76%
- Percent Control [4]: 24%
- Percent Control [5]: 78%
- Percent Control [6]: 94%
- Percent Control [7]: 91%
- Percent Control [8]: 83%
- Percent Control [9]: 88%
- Percent Control [10]: 79%
- Percent Control [11]: 100%
- Percent Control [12]: 100%
- Percent Control [13]: 100%
- Percent Control [14]: 100%
- Percent Control [15]: 100%
- Percent Control [16]: 83%
- Percent Control [17]: 64%
- Percent Control [18]: 90%
- Percent Control [19]: 83%
- Percent Control [20]: 99%
- Percent Control [21]: 90%
- Percent Control [22]: 100%
- Percent Control [23]: 94%
- Percent Control [24]: 73%
- Percent Control [25]: 100%
- Percent Control [26]: 61%
